Assay [1] has as its system p-ERK in NCI-H441 cells (KRAS G12V mutation). Kind of assay: Cell p-ERK assay (HTRF) in NCI-H441 cells. The settings on record: for pIC50: NCI-H441 cells, 3 h compound incubation, HTRF p-ERK T202/Y204, read-out: H441 p-ERK IC50. Format: cell-based, human. In outline:
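AsPC-1 (10000/well) or NCI-H441 (20000/well) cells were seeded in RPMI-1640 with 10% FBS, grown overnight, then exposed to 3.16-fold compound dilutions (0.1% DMSO) for 3 h at 37 °C. Lysates were read for phospho-ERK T202/Y204 by HTRF; IC50 came from four-parameter fits of inhibition versus DMSO and blank wells.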
For orientation: TR-FRET usually uses a lanthanide donor and a delayed reading to cut background.

Assay [2] concerns p-ERK in AsPC-1 cells (KRAS G12D mutation). Kind of assay: Cell p-ERK assay (HTRF) in AsPC-1 cells. It is filed as cell-based, human. The settings on record: for pIC50: AsPC-1 cells, 3 h compound incubation, HTRF p-ERK T202/Y204, read-out: AsPC-1 p-ERK IC50. As for the experimental part:
AsPC-1 cells were purchased from ATCC, Cat. No. CRL-1682: NCI-H441 cells were purchased from ATCC, Cat. No. HTB-174: RPMI-1640 medium was purchased from Gibco, Cat. No. I1875-093: FBS was purchased from Gibco, Cat. No. 10099-141C: penicillin/streptomycin double-antibiotic solution (PS) was purchased from Gibco, Cat. No. 15140-122: trypsin (containing EDTA) was purchased from Gibco, Cat. No. 25200-072; DMSO was purchased from VWRAMRESCO, Cat. No. 0231-500ML; 96-well cell culture plates were purchased from Corning, Cat. No. 3599: white-bottomed, opaque 96-well plates were purchased from Cisbio, Cat. No. 66PL96025; Advance ERK phospho-T202/Y204 kit was purchased from Cisbio, Cat. No. 64AERPEH; cell counter was purchased from CHEMOMETEC, model: NC-200; microplate reader was purchased from PerkinElmer, model: EnVision.
AsPC-1, a human pancreatic cancer cell strain endogenously containing a KRAS^G12D mutation, was cultured in a complete medium containing RPMI-1640+10% FBS+1% PS. NCI-H441, a human non-small cell lung cancer cell strain endogenously containing a KRAS^G12V mutation, was cultured in a complete medium containing RPMI-1640+10% FBS+1% PS.
The cells were digested with trypsin (containing EDTA), collected in their corresponding complete media, and counted. The density of the cell suspensions was adjusted with their corresponding complete media, and 10000 AsPC-1 cells or 20000 NCI-H441 cells per well were seeded into a 96-well cell culture plate, with the volume of the medium in each well being 80 μL.
The cell culture plate was incubated in an incubator at 37° C. with 5% CO2 overnight. A series of 3.16-fold gradient dilutions of a 1000- compound stock solution were prepared with DMSO, and then diluted 200-fold with the complete medium described above to give 5′ compound stock solutions. On the day after cell seeding, 20 μL of the 5× compound stock solution was added to each cell culture well. As a result, the final concentration of the compound in the cell culture well became 1×, and the DMSO content in the well was 0.1%. In addition to the compound-treated wells described above, cell-containing DMSO control wells were also set. A complete medium containing 0.5% DMSO was added at 20 μL/well. After the mixture was well mixed, the culture plate was incubated in the incubator at 37° C. with 5% CO2 for another 3 h. The medium was then removed from the culture wells, and 50 μL of cell lysis buffer (from Advance ERK phospho-T202,Y204 kit) was added to each well. The mixture was well mixed and incubated for 30 min. Then, 16 μL of the mixture was transferred to a white-bottomed, opaque 96-well assay plate, and separately, 16 μL of cell lysis buffer was added to additional wells (serving as blank wells) in the assay plate. After the transfer was completed, 4 μL of p-ERK HTRF antibody mixture (from Advance ERK phospho-T202/Y204 kit) was added to each well of the assay plate, followed by a 4-hour incubation. The HTRF signal values (RLU) were then measured using a microplate reader, and the inhibition rate of the compound against p-ERK levels was calculated as follows: IR (%)=(RLUDMSO−RLUcompound)/(RLUDMSO−RLUblank)×100%, where RLUDMSO is the average HTRF signal value from the DMSO control well samples, RLUblank is the average HTRF signal value from the blank well samples, and RLUcompound is the HTRF signal value from the compound-treated well samples. Using an XLfit software, the IR (%) values were plotted against the logarithm of the compound concentrations, and the dose-response curves were fitted using the four-parameter method to calculate the IC50 values.

pIC50: −log10 of the molar value. Like-named read-outs stand apart in the source and are kept apart here.

In general, pIC50 refers to the negative decadic logarithm of the IC50, by convention in mol/L. As for `CCn1c(-c2cc(OCCN3CCOCC34CC4)cnc2[C@H](C)OC)c2c3cc(ccc31)-c1csc(n1)C[C@H](NC(=O)C1[C@@H](C)[C@H]1C)C(=O)N1CCC[C@H](N1)C(=O)OCC1(CC1)C2` (stereo partly drawn) [Compound Z385, (1r,2R,3S)—N-((3′S,4′S,Z)-2′-(5-(2-(7-oxa-4-azaspiro[2,5]octan-4-yl)ethoxy)-2-((S)-1-methoxyethyl)pyridin-3-yl)-1-ethyl-5′,7′-dioxospiro[cyclopropane-1,10′-8-oxa-2(4,2)-thiazola-1(5,3)-indola-6(1,3)-pyridazinacycloundecaphan]-4′-yl)-2,3-dimethylcyclopropane-1-carboxamide], the pIC50 in assay [1] (Homo sapiens, NCI-H441, 3 h) is 7.68; in assay [2] (Homo sapiens, ASPC1, 3 h), 7.48.
Regarding `CCn1c(-c2cc(C#CCN3CCCOCC3)c[n+]([O-])c2C(C)C)c2c3cc(ccc31)-c1csc(n1)C[C@H](NC(=O)[C@H]1[C@H](C)[C@@H]1C)C(=O)N1CCC[C@H](N1)C(=O)OCC(C)(C)C2` (atropisomer, axis not shown; (Ra)) [Compound Z950, (1r,2R,3S)—N-((6^3S,4S,Z)—(Ra)-1^2-(5-(3-(1,4-oxazepan-4-yl)prop-1-yn-1-yl)-2-isopropylpyridin-1-oxide-3-yl)-1^1-ethyl-10,10-dimethyl-5,7-dioxo-6^1,6^2,6^3,6^4,6^5,6^6-hexahydro-1^1H-8-oxa-2(4,2)-thiazola-1(5,3)-indola-6(1,3)-pyridazinacycloundecaphane-4-yl)-2,3-dimethylcyclopropane-1-carboxamide], the pIC50 in assay [1] (Homo sapiens, NCI-H441, 3 h) is 9.80; in assay [2] (Homo sapiens, ASPC1, 3 h), 9.57.
Regarding `C=C1CCN2CCN(c3cnc([C@H](C)OC)c(-c4c5c6cc(ccc6n4CC)-c4csc(n4)C[C@H](NC(=O)[C@H]4[C@H](C)[C@@H]4C)C(=O)N4CCC[C@H](N4)C(=O)OCC(C)(C)C5)c3)C[C@H]2C1` (atropisomer, axis not shown; (Sa)) [Compound Z549, (1r,2R,3S)—N-((6^3S,4S,Z)-1^1-ethyl-(Sa)-1^2-(2-((S)-1-methoxyethyl)-5-((R)-8-methyleneoctahydro-2H-pyrido[1,2-a]pyrazin-2-yl)pyridin-3-yl)-10,10-dimethyl-5,7-dioxo-6^1,6^2,6^3,6^4,6^5,6^6-hexahydro-1′H-8-oxa-2(4,2)-thiazola-1(5,3)-indola-6(1,3)-pyridazinacycloundecaphane-4-yl)-2,3-dimethylcyclopropane-1-carboxamide], the pIC50 was 7.57 in assay [1] and 7.49 in assay [2].
In the same order, the values of `CCn1c(-c2cc(OCCN3CCS(=O)(=O)CC3)cnc2[C@H](C)OC)c2c3cc(ccc31)-c1csc(n1)C[C@H](NC(=O)[C@H]1[C@H](C)[C@@H]1C)C(=O)N1CCC[C@H](N1)C(=O)OCC(C)(C)C2` (atropisomer, axis not shown; (Sa)) [Compound Z470, (1r,2R,3S)—N-((6^3S,4S,Z)—(Sa)-1^2-(5-(2-(1,1-dioxidothiomorpholino)ethoxy)-2-((S)-1-methoxyethyl)pyridin-3-yl)-1^1-ethyl-10,10-dimethyl-5,7-dioxo-6^1,6^2,6^3,6^4,6^5,6^6-hexahydro-1^1H-8-oxa-2(4,2)-thiazola-1(5,3)-indola-6(1,3)-pyridazinacycloundecaphane-4-yl)-2,3-dimethylcyclopropane-1-carboxamide] are 7.16 and 7.45.
`CCn1c(-c2cc(C#CCN3CCC3)cnc2[C@H](C)OC)c2c3cc(ccc31)-c1csc(n1)C[C@H](NC(=O)CC1CC1)C(=O)N1CCC[C@H](N1)C(=O)OCC(C)(C)C2` [Compound Z999, N-((6^3S,4S,Z)-1^2-(5-(3-(azetidin-1-yl)prop-1-yn-1-yl)-2-((S)-1-methoxyethyl)pyridin-3-yl)-1^1-ethyl-10,10-dimethyl-5,7-dioxo-6^1,6^2,6^3,6^4,6^5,6^6-hexahydro-1^1H-8-oxa-2(4,2)-thiazola-1(5,3)-indola-6(1,3)-pyridazinacycloundecaphane-4-yl)-2-cyclopropylacetamide]: the negative logarithm of the IC50 (pIC50) was 8.67 in assay [1] (Homo sapiens, NCI-H441, 3 h) and 8.45 in assay [2] (Homo sapiens, ASPC1, 3 h).
One may read the IC50 as the point on the concentration scale where inhibition reaches its midpoint. Consider `CCn1c(-c2cc(C#CCN3CCC(O)(c4cccc(C)[n+]4[O-])CC3)cnc2[C@H](C)OC)c2c3cc(ccc31)-c1csc(n1)C[C@H](NC(=O)[C@H]1[C@H](C)[C@@H]1C)C(=O)N1CCC[C@H](N1)C(=O)OCC(C)(C)C2` (atropisomer, axis not shown; (Ra)) [Compound Z1055, 2-(1-(3-(5-((6^3S,4S,Z)-4-((r,2R,3S)-2,3-dimethylcyclopropane-1-carboxamido)-1^1-ethyl-10,10-dimethyl-5,7-dioxo-6^1,6^2,6^3,6^4,6^5,6^6-hexahydro-1^1H-8-oxa-2(4.2)-thiazola-1(5,3)-indola-6(1.3)-pyridazinacycloundecaphane-12-yl)-(Ra)-6-((S)-1-methoxyethyl)pyridin-3-yl)prop-2-yn-1-yl)-4-hydroxypiperidin-4-yl)-6-methylpyridine 1-oxide], for which the IC50 was 0.19 nM in assay [1] (Homo sapiens, NCI-H441, 3 h, read-out: H441 p-ERK IC50(nM)) and 0.32 nM in assay [2] (Homo sapiens, ASPC1, 3 h, read-out: AsPC-1 p-ERK IC50(nM)).
As for `CCn1c(-c2cc(C#CCN3CCS(=O)(=O)CC3)cnc2C(C)OC)c2c3cc(ccc31)-c1csc(n1)CC(NC(=O)CC1CC1)C(=O)N1CCCC(N1)C(=O)OCC(C)(C)C2` (atropisomer, axis not shown; (Ra)) [Compound Z962, 2-cyclopropyl-N-((6^3S,4S,Z)—(Ra)-1^2-(5-(3-(1,1-dioxidothiomorpholino)prop-1-yn-1-yl)-2-((S)-1-methoxyethyl)pyridin-3-yl)-1^1-ethyl-10,10-dimethyl-5,7-dioxo-6^1,6^2,6^3,6^4,6^5,6^6-hexahydro-1^1H-8-oxa-2(4,2)-thiazola-1(5,3)-indola-6(1,3)-pyridazinacycloundecaphane-4-yl)acetamide], the pIC50 in assay [1] is 9.82; in assay [2], 9.59.
With `CCn1c(-c2cc(C#CCN3CCC(C#N)CC3)cnc2[C@H](C)OC)c2c3cc(ccc31)-c1csc(n1)C[C@H](Nc1nnc3cc(C)ccn13)C(=O)N1CCC[C@H](N1)C(=O)OCC(C)(C)C2` (atropisomer, axis not shown; (Ra)) [Compound Z959], the pIC50 in assay [1] (Homo sapiens, NCI-H441, 3 h) was 9.00; in assay [2] (Homo sapiens, ASPC1, 3 h), 8.38.
For the compound `CCn1c(-c2cc(C#CC(=O)N3CCCOCC3)cnc2[C@H](C)OC)c2c3cc(ccc31)-c1csc(n1)C[C@H](NC(=O)[C@H]1[C@H](C)[C@@H]1C)C(=O)N1CCC[C@H](N1)C(=O)OCC(C)(C)C2` [Compound Z810A, (1r,2R,3S)—N-((6^3S,4S,Z)-1^2-ethyl-1^2-(5-(3-(1,4-oxazepan-4-yl)-3-oxoprop-1-yn-1-yl)-2-((S)-1-methoxyethyl)pyridin-3-yl)-10,10-dimethyl-5,7-dioxo-6^1,6^2,6^3,6^4,6^5,6^6hexahydro-1^1H-8-oxa-2(4,2)-thiazola-1(5,3)-indola-6(1,3)-pyridazinacycloundecaphane-4-yl)-2,3-dimethylcyclopropane-1-carboxamide], the pIC50 in assay [1] was 9.20; in assay [2] (Homo sapiens, ASPC1, 3 h), 8.91.

Values taken from US20260234165A1, “MACROCYCLIC COMPOUNDS, PREPARATION METHOD THEREFOR, AND USE THEREOF” (GENFLEET THERAPEUTICS (SHANGHAI) INC., priority 2004, published 2026).
